Experimental data: patent US10195254B2, “Myristoylated leptin-related peptides and uses thereof” (ALBANY MEDICAL COLLEGE, priority 2014, dated 2019)
Where two headings read alike, the source gives them in different places. Blank lines part the entries; values can stand above or below the molecule they belong to. Where a SMILES comes first, the peptide text is derived from it. Where no end group is shown, it is not given here. [ ]: non-standard residue; d: D form. The star is where a group is joined. Myristoyl = CCCCCCCCCCCCCC(=O)*

Tests used:
[1] = in vivo, cited from earlier work
[2] = tested on: STZ-induced hyperglycemic male Swiss Webster mice; assay: Fasting blood glucose in STZ-induced hyperglycemic mice; format: in vivo
Procedure: (§1) Streptozotocin (STZ)-induced male Swiss Webster mice were used in these studies to examine the effects of MA-[D-Leu-4]-OB3 on body weight gain and insulin sensitivity in an insulin-deficient mouse model of diabetes. Using this model, the insulin sensitizing effects of MA-[D-Leu-4]-OB3 was compared with those of another well-characterized insulin-sensitizing drug, metformin.
(§2) Seven-week old male Swiss Webster mice were rendered hyperglycemic with a single intraperitoneal (ip) dose of 150 mg/kg STZ. Fasting blood glucose levels were measured prior to STZ treatment to establish normal (non-diabetic) glucose levels, and every day thereafter to assess hyperglycemia. Fasting blood glucose levels were routinely 3- to 4-fold higher than normal 4-5 days after STZ treatment.
(§3) Detemir insulin (Levemir®, Novo Nordisk, Malov, Denmark) delivery pens were used to dispense 0.025 U/100 μL phosphate buffered saline (PBS), and delivered by subcutaneous (sc) injection twice daily between 8:00 and 9:00 a.m. and 4:00 and 5:00 p.m. for 14 days. MA-[D-Leu-4]-OB3 (NeoBiolab, Cambridge, Mass.) and metformin (Sigma Aldrich, St. Louis, Mo.) were dissolved in 0.3% dodecyl maltoside (DDM, Intravail®, Aegis Therapeutics, San Diego, Calif.) reconstituted in sterile deionized water, and delivered twice daily by oral gavage between 8:00 h and 9:00 h and 16:00 h and 17:00 h at a concentration of 5 mg/kg/100 μL or 100 mg/kg/100 uL, respectively, for 14 days.
(§4) On day zero and each day thereafter, food and water intake were measured, and the mice were weighed in the morning between 8:00 h and 9:00 h. To assure fasting (8 hour) glucose levels on the days blood glucose was measured, food was removed from the cages between 8:00 h and 9:00 h and replaced immediately after measurement.

[3] = tested on: male BKS.Cg-Dock7m+/+Leprdb/J diabetic db/db mice; assay: Fasting blood glucose in db/db mice after oral delivery in PBS or 0.3% DDM; format: in vivo; conditions: oral gavage once daily
Procedure: Studies comparing the effects of oral delivery of myristic acid-conjugated [D-Leu-4]-OB3 in PBS or 0.3% dodecyl maltoside (DDM, Intravail®) on fasting blood glucose in six to seven week-old male BKS.Cg-Dock7^m+/+Lepr^db/J diabetic db/db mice.
Male db/db mice were given increasing concentrations of MA-[D-Leu-4]-OB3 in either PBS or DDM orally by gavage once daily in the evening for 14 consecutive days. Fasting (8 hours) blood glucose levels were measured every other day using an Accu-Chek Nano glucose meter (Roche, Indianapolis, Ind.).

[4] = Body weight gain, food and water intake in STZ-induced hyperglycemic mice; format: in vivo, male Swiss Webster mice
Procedure: as §1, §2, §3, §4

[5] = mouse, in vivo
Procedure: (§5) Three to four week-old male Swiss Webster mice weighing between 12 and 15 g were obtained from Charles River Laboratories (Troy, N.Y., USA). The animals were housed three per cage in polycarbonate cages fitted with stainless steel wire lids and air filters, and supported on ventilated racks (Thoren Caging Systems, Hazelton, Pa., USA) in the Albany Medical College Animal Resources Facility. The mice were maintained at a constant temperature (24° C.) with lights on from 07:00 to 19:00 h, and allowed food and water ad libitum until used for uptake studies.
(§6) For oral and intranasal delivery, MA-[D-Leu-4]-OB3 was dissolved in 0.3% Intravail® (Aegis Therapeutics, San Diego, Calif., USA) reconstituted in sterile deionized water at a concentration of 0.1 mg/100 μL and 0.1 mg/10 μL, respectively. At time zero (0), a single 200 μl SC, IM, or IP injection of mouse MA-[D-Leu-4]-OB3 was given to each of three mice per time point. Intranasal delivery was achieved by lightly anesthetizing the mice with isoflurane (1-4%) and delivering 10 μl of MA-[D-Leu-4]OB3 into the nares using a Gilson® P-20 pipettor. Following peptide administration, the mice were transferred to separate cages for the designated time period.
(§7) One, two, four, six, 18, and 24 h after peptide delivery, the mice were anesthetized with isoflurane (5%) and exsanguinated by cardiac puncture. The blood was collected in sterile non-heparinized plastic centrifuge tubes and allowed to stand at room temperature for 1 h. The clotted blood was rimmed from the walls of the tubes with sterile wooden applicator sticks. Individual serum samples were prepared by centrifugation for 30 min at 2600×g in an Eppendorf 5702R, A-4-38 rotor (Eppendorf North America, Westbury, N.Y., USA), pooled by time point, and stored frozen until assayed for MA-[D-Leu-4]OB3 content.
(§8) MA-[D-Leu-4]-OB3 concentrations in the pooled serum samples were measured with a competitive ELISA, developed and validated by the present inventors, with the following modification: MA-[D-Leu-4]-OB3 was used to construct the standard curve. Cross-reactivity of MA-[D-Leu-4]-OB3 with the polyclonal antibody to [D-Leu-4]-OB3 used in the ELISA was 100%. Each serum sample was assayed in duplicate. Intra- and inter-assay coefficients of variation were 0.03% and 0.2%, respectively.
(§9) Serum concentrations of MA-[D-Leu-4]OB3 vs. time following SC, IP, IM, oral, or intranasal delivery were plotted using the graphics program SigmaPlot 8.0 (SPSS Science, Chicago, Ill., USA). The area under each curve (AUC) was calculated with a function of this program, and expressed as ng/ml/min.
(§10) The period of time required for the serum concentration of MA-[D-Leu-4]OB3 to be reduced to exactly one-half of the maximum concentration achieved following IP, SC, IM, oral, and intranasal administration was calculated using the following formula: t1/2=0.693/kelim
(§11) where kelim represents the elimination constant, determined by plotting the natural log of each of the concentration points in the beta phase of the uptake profiles against time.

[6] = mouse, in vivo; remark: listed apart in the source
Procedure: as §5, §6, §7, §8, §9, §10, §11

Molecule: [D-Leu-4]-OB3: synthetic peptide amide with leptin-like activity that has the sequence SCSLPQT (SEQ ID NO:1); non-myristoylated comparator (SCS[dL]PQT-NH2)
AUC ([1]; im, 1 mg): 1,481,060 ng/ml/min | Cmax ([1]; im, 1 mg): 46,566 ng/ml | Plasma CL ([1]; im, 1 mg): 0.68 mL/min | Tmax ([1]; im, 1 mg): 5 min | Vd ([1]; im, 1 mg): 29.4 mL | t1/2 ([1]; im, 1 mg): 36 min | AUC ([1]; inhaled or intranasal, 1 mg): 4,336,963 ng/ml/min | Plasma CL ([1]; inhaled or intranasal, 1 mg): 1.37 mL/min | Vd ([1]; inhaled or intranasal, 1 mg): 15.4 mL | t1/2 ([1]; inhaled or intranasal, 1 mg): 41 min | AUC ([1]; ip, 1 mg): 1,072,270 ng/ml/min | Cmax ([1]; ip, 1 mg): 22,519 ng/ml | Tmax ([1]; ip, 1 mg): 5 min | Vd ([1]; ip, 1 mg): 65.5 mL | clearance ([1]; ip, 1 mg): 0.93 mL/min | t1/2 ([1]; ip, 1 mg): 49 min | AUC ([1]; po, 1 mg): 552,710 ng/ml/min | Cmax ([1]; po, 1 mg): 8,574 ng/ml | Plasma CL ([1]; po, 1 mg): 1.81 mL/min | Tmax ([1]; po, 1 mg): 50 min | Vd ([1]; po, 1 mg): 47.9 mL | t1/2 ([1]; po, 1 mg): 20 min | AUC ([1]; sc, 1 mg): 1,182,498 ng/ml/min | Cmax ([1]; sc, 1 mg): 35,063 ng/ml | Plasma CL ([1]; sc, 1 mg): 0.85 mL/min | Tmax ([1]; sc, 1 mg): 5 min | Vd ([1]; sc, 1 mg): 42.9 mL | t1/2 ([1]; sc, 1 mg): 34 min | period of absorption [1]: 5 to 60 min

period of absorption [5]: 2 to 6 h | relative bioavailability [5]: 5.3 | Plasma CL ([5]; im, 0.1 mg): 0.12 mL/min | clearance ([5]; im, 0.1 mg): 0.12 mL/min | t1/2 ([5]; im, 0.1 mg): 5.9 h | reduction of Cmax ([5]; inhaled or intranasal): 80% | relative bioavailability ([5]; inhaled or intranasal): 1.0 | Plasma CL ([5]; inhaled or intranasal, 0.1 mg): 0.63 mL/min | Vd ([5]; inhaled or intranasal, 0.1 mg): 447.0 mL | clearance ([5]; inhaled or intranasal, 0.1 mg): 0.63 mL/min | relative bioavailability ([5]; ip): 7.7 | Clearance from the plasma ([5]; ip, 0.1 mg): 0.08 mL/min | Vd ([5]; ip, 0.1 mg): 30.9 mL | clearance ([5]; ip, 0.1 mg): 0.0798 mL/min | t1/2 ([5]; ip, 0.1 mg): 4.5 h | reduction of Cmax ([5]; po): 31% | relative bioavailability ([5]; po): 1.8 | Plasma CL ([5]; po, 0.1 mg): 0.36 mL/min | Vd ([5]; po, 0.1 mg): 900.8 mL | clearance ([5]; po, 0.1 mg): 0.36 mL/min | relative bioavailability ([5]; sc): 11.7 | Plasma CL ([5]; sc, 0.1 mg): 0.05 mL/min | Vd ([5]; sc, 0.1 mg): 8.6 mL | clearance ([5]; sc, 0.1 mg): 0.05 mL/min | half-life ([6]; half-life): ≤ 1680 min | AUC ([6]; im, 0.1 mg): 842 µg·h/mL | Cmax ([6]; im, 0.1 mg): 89800 ng/mL | Tmax ([6]; im, 0.1 mg): 2 h | half-life ([6]; im, 0.1 mg, t1/2): 330 min | AUC ([6]; inhaled or intranasal, 0.1 mg): 158 µg·h/mL | Cmax ([6]; inhaled or intranasal, 0.1 mg): 10000 ng/mL | Tmax ([6]; inhaled or intranasal, 0.1 mg): 6 h | half-life ([6]; inhaled or intranasal, 0.1 mg, t1/2): 492 min | AUC ([6]; ip, 0.1 mg): 1210 µg·h/mL | Tmax ([6]; ip, 0.1 mg): 2 h | half-life ([6]; ip, 0.1 mg, t1/2): 246 min | AUC ([6]; po, 0.1 mg): 278 µg·h/mL | Cmax ([6]; po, 0.1 mg): 14400 ng/mL | Tmax ([6]; po, 0.1 mg): 4 h | half-life ([6]; po, 0.1 mg, t1/2): 1730 min | AUC ([6]; sc, 0.1 mg): 1830 µg·h/mL | Tmax ([6]; sc, 0.1 mg): 2 h | half-life ([6]; sc, 0.1 mg, t1/2): 120 min
Molecule: CCCCCCCCCCCCCC(=O)N[C@@H](CO)C(=O)N[C@@H](CS)C(=O)N[C@@H](CO)C(=O)N[C@H](CC(C)C)C(=O)N1CCC[C@H]1C(=O)N[C@@H](CCC(N)=O)C(=O)N[C@H](C(N)=O)[C@@H](C)O [MA-[D-Leu-4]-OB3] (Myristoyl-SCS[dL]PQT-NH2)
effect on fasting blood glucose levels ([2]; 14 day study, combination: within two days and throughout the study): very little effect | blood glucose % of initial ([2]; after 14 days): 98.8% | blood glucose Change ([2]; after 14 days): -6 mg/dL | Initial blood glucose ([2]; baseline, fasting): 507.0 ± 6.0 mg/dL | reduction of fasting blood glucose levels ([2]; end of 14-day test period versus beginning): 1.2% | Final blood glucose ([2]; fasting, after 14 days twice daily: MA-[D-Leu-4]-OB3 5 mg/kg oral, metformin 100 mg/kg oral, insulin 0.025 U sc): 501.0 ± 12.3 mg/dL | times more effective than metformin in improving insulin sensitivity ([2]; on a mass basis, 10 mg/kg/day vs. 200 mg/kg/day): 20 times | times more effective than metformin in improving insulin sensitivity ([2]; on a molar basis): 6.1 times | fasting blood glucose levels ([3]; 100 or 250 mcg/day in 0.3% DDM, 14 days): significantly reduced | fasting blood glucose levels ([3]; 250 mcg/day in 0.3% DDM, end of 14-day treatment): reduced to levels seen in non-diabetic BKS mice | fasting blood glucose levels ([3]; 250 or 500 mcg/day in PBS, after 14 days): unchanged from those in control mice receiving PBS alone | heavier at the end of the 14-day test period (body weight gain) [4]: 8.1% | Cumulative food intake ([4]; 14 days): 103.3 ± 2.3 gm/mouse | Cumulative water intake ([4]; 14 days): 452.5 ± 6.4 mL/mouse | body weight % of initial ([4]; after 14 days): 108.1% | body weight Change ([4]; after 14 days): +2.0 gm | Final body weight ([4]; after 14 days twice daily: MA-[D-Leu-4]-OB3 5 mg/kg oral, metformin 100 mg/kg oral, insulin 0.025 U sc): 26.8 ± 1.6 gm | Initial body weight ([4]; baseline, STZ mice): 24.8 ± 1.4 gm
